Experimental data reported in US11389440B2, “PIM kinase inhibitors in combination with autophagy inhibitors for treatment of cancers” (UNIVERSITY OF MARYLAND, BALTIMORE COUNTY, priority 2017, dated 2022).

Columns and labels:
Molm16 cells = Molm16 cells treated with AZD1208 in combination with autophagy inhibitors (FA values, CI values); format: cell-based; parameters: key: fraction of cells affected by treatment (0–1)
Method: (§1) General experimental procedure: 20,000 (EOL1) cells were seeded per well in 96-well plates. […] At 48 hours the MTT metabolism indicative of number of live cells was measured by MTT assay (Promega, Cat: G4000). The resulting values were used to evaluate the Fa (fraction affected) values, which were plugged into the CompuSyn software to calculate the combination indices (CI values) at ED50, ED75, ED90 and ED95 (ED—Effective dose of combination).
These are values of drug dose and effect (fraction of cells affected by the treatment—FA values). The treatment time is 72 hours.
(§2) The data presented in this Table 5 is from an experiment in which Molm16 cells were treated with AZD1208 in combination with verteporfin (AZD1208 μM:verteporfin μM=1:200). These are values of drug dose and effect (fraction of cells affected by the treatment—FA values). The treatment time is 72 hours.
as §2, with “6” for “5”, “Bafilomycin A1” for “verteporfin”, “μM:bafilomycin A1 μM=1:1).” for “μM:verteporfin μM=1:200).”, “48” for “72”

[1] = tested on: acute myeloid leukemia cells (EOL1); test: MTT assay of EOL1 cells treated with AZD1208 and chloroquine alone and in combination; CI by CompuSyn; format: cell-based, human; conditions: EOL1, 48 hours, scale 0-1
Method: as §1
The data were analyzed using CompuSyn, an algorithm based on the Chao-Talalay method for detecting drug synergy (3).
Table 3. […] CI values were determined using CompuSyn at 50%, 75%, 90%, and 95% growth inhibition (GI) Cell growth was measured using standard 3-(4,5-dimethylthiazol-2-yl)-2,5-diphenyltetrazolium bromide (MTT) assays.

In the case of Verteporfin, the “Effect (FA, fraction of cells affected)” value (Molm16 cells; Verteporfin alone 10 μM, Molm16, 72 hours) was 0.08412 and the “Effect (FA, fraction of cells affected)” value (Molm16 cells; Verteporfin alone 20 μM, Molm16, 72 hours) was 0.2143.
With `N[C@@H]1CCCN(c2c(/C=C3/SC(=O)NC3=O)cccc2-c2ccccc2)C1` [AZD1208, (5E)-5-[[2-[(3R)-3-aminopiperidin-1-yl]-3-phenylphenyl]methylidene]-1,3-thiazolidine-2,4-dione] the “Effect (FA, fraction affected)” value ([1]; AZD1208 alone 0.05 μM) was 0.505, the “Effect (FA, fraction affected)” value ([1]; AZD1208 alone 0.1 μM) was 0.639 and the “Effect (FA, fraction affected)” value ([1]; AZD1208 alone 0.25 μM) was 0.386. For the same compound, the “Effect (FA, fraction of cells affected)” value (Molm16 cells; AZD1208 alone 0.00625 μM, Molm16, 48 hours, Table 6) was 0.1716, the “Effect (FA, fraction of cells affected)” value (Molm16 cells; AZD1208 alone 0.0125 μM, Molm16, 48 hours, Table 6) was 0.2259 and the “Effect (FA, fraction of cells affected)” value (Molm16 cells; AZD1208 alone 0.0125 μM, Molm16, 72 hours, Table 4) was 0.2413. For the same compound, the “Effect (FA, fraction of cells affected)” value (Molm16 cells; AZD1208 alone 0.025 μM, Molm16, 48 hours, Table 6) was 0.3615, the “Effect (FA, fraction of cells affected)” value (Molm16 cells; AZD1208 alone 0.025 μM, Molm16, 72 hours, Table 4) was 0.354 and the “Effect (FA, fraction of cells affected)” value (Molm16 cells; AZD1208 alone 0.05 μM, Molm16, 72 hours, Table 4) was 0.5497. The “Effect (FA, fraction of cells affected)” value (Molm16 cells; AZD1208 alone 0.05 μM, Molm16, 72 hours, Table 5) was 0.4847 and the “Effect (FA, fraction of cells affected)” value (Molm16 cells; AZD1208 alone 0.1 μM, Molm16, 72 hours, Table 5) was 0.6474.
In the case of `CCN(CC)CCCC(C)Nc1ccnc2cc(Cl)ccc12` (stereo not shown) [chloroquine], the “Effect (FA, fraction of cells affected)” value (Molm16 cells; chloroquine alone 10 μM, Molm16, 72 hours) was 0.05357, the “Effect (FA, fraction of cells affected)” value (Molm16 cells; chloroquine alone 20 μM, Molm16, 72 hours) was 0.1376 and the “Effect (FA, fraction of cells affected)” value (Molm16 cells; chloroquine alone 40 μM, Molm16, 72 hours) was 0.4647.
For `CO/C1=C\C(C)=C\[C@@H](C)[C@@H](O)[C@@H](C)C/C(C)=C/C=C/[C@H](OC)[C@@H]([C@@H](C)[C@@H](O)[C@H](C)[C@@]2(O)C[C@@H](O)[C@H](C)[C@@H](C(C)C)O2)OC1=O` [Bafilomycin A1], the “Effect (FA, fraction of cells affected)” value (Molm16 cells; Bafilomycin A1 alone 0.00625 μM, Molm16, 48 hours) was 0.4744, the “Effect (FA, fraction of cells affected)” value (Molm16 cells; Bafilomycin A1 alone 0.0125 μM, Molm16, 48 hours) was 0.7998 and the “Effect (FA, fraction of cells affected)” value (Molm16 cells; Bafilomycin A1 alone 0.025 μM, Molm16, 48 hours) was 0.8279.
